Measurements as given in a melting point compilation (Tetko et al.).

SMILES | melting point
COc1cccc(C(N)CC(=O)O)c1OC (stereo not given) | 206 to 208 °C
NCc1nncn1-c1ccccc1 | 59 to 61 °C
NC(=NO)c1cc2ccccc2o1 | 183 to 185 °C
O=c1[nH]c(-c2ccccc2Br)cs1 | 169 to 171 °C
Cc1ccc(C(=O)N2CCOCC2)cc1N | 153 to 155 °C
COCCCOc1ccc(C(=O)O)cc1 | 112 to 114 °C
Cc1cc(C(=O)O)nn1-c1ccc(Br)cc1 | 211 to 213 °C
CC(C)(C)OC(=O)N1CCN(CCN)CC1 | 34 to 36 °C
O=C(O)c1cc(/C=C/c2cccc(Br)c2)nc2ccc(Br)cc12 | 307 to 309 °C
O=Cc1cn(-c2ccccc2)nn1 | 97 to 99 °C
C=CCNS(=O)(=O)C(C)(C)C | 53 to 55 °C
CC1(O)C(=O)Nc2ccccc21 (stereo not given) | 156 to 158 °C
CC(C)(C)OC(=O)N1CC2CCC(O)C2C1 (stereo not given) | 61 to 63 °C
Cc1cccc(C(C)C(=O)O)c1 (stereo not given) | 61 to 63 °C
NC1(c2cccc(F)c2)CCOCC1 | 48 to 50 °C
CS(=O)(=O)c1ccccc1NN | 75 to 77 °C
CC1=CC=CC(=C2Nc3ccc(F)cc3N2C(C)C)C1=N | 160 to 162 °C
Nc1cc2c(cc1C(=O)O)OCCO2 | 189 to 191 °C
Cc1noc2ncnc(N)c12 | 269 to 271 °C
c1ccc(CC2CCN(c3ncnc4sccc34)CC2)cc1 | 124 to 126 °C
CC(Cl)C(=O)c1ccc(Cl)cc1 (stereo not given) | 58 to 60 °C
N#Cc1c(N)nc2n1CCS2 | 216 to 218 °C
O=[N+]([O-])c1ccc2nc(S)oc2c1 | 192 to 194 °C
Cc1cc(C(N)=O)c2ccccc2n1 | 246 to 248 °C
COc1cc(NC(C)=O)ccc1N | 128 to 130 °C
CC(O)Cc1ccc2ccccc2n1 (stereo not given) | 64 to 66 °C
Cc1ccc(NC(=O)c2cccc(Cl)c2)c(C(=O)O)c1 | 191 to 193 °C

SMILES | melting point
O=C(O)c1csc(-c2ccc(F)cc2)n1 | 196 to 198 °C
O=C(O)c1nn(-c2ccccc2I)cc1O | 198 to 200 °C
O=C(CCl)NCC1(c2ccccc2)CCC1 | 95 to 97 °C
COc1cc(OC)cc(C(=O)Nc2ccc(O)c(C(=O)O)c2)c1 | 241 to 243 °C
O=C(O)CCn1cc(Cl)cn1 | 91 to 93 °C
Cc1c(C(=O)O)oc2cc3c(cc12)CCC3 | 265 to 267 °C
NNC(=O)C(=O)NC1CC1 | 181 to 183 °C
O=C(O)Cc1cccc2cccnc12 | 130 to 132 °C
Cc1nc(-c2ccccc2F)sc1C(C)O (stereo not given) | 79 to 81 °C
CC(C)C(Br)C(=O)NCc1ccccc1F (stereo not given) | 104 to 106 °C
NS(=O)(=O)c1ccc(C(=O)O)cc1Br | 201 to 203 °C
NS(=O)(=O)c1ccc(CCn2c(S)nc3ccccc3c2=O)cc1 | 294 to 296 °C
Cc1[nH]cnc1CC#N | 164 to 166 °C
O=C(O)c1ccc2c3c(cccc13)CC2 | 220 to 223 °C
CC1(CCCC(=O)O)NC(=O)NC1=O (stereo not given) | 149 to 151 °C
CCn1c(N)nc2ccccc21 | 152 to 154 °C
O=C(O)C1CSCN1C(=O)c1c[nH]c2ccccc12 (stereo not given) | 159 to 161 °C
c1ccc(COc2ccc3ncccc3c2)cc1 | 73 to 75 °C
Clc1cc2nc[nH]c2nc1Cl | 119 to 121 °C
Nc1cc(F)cc(C(=O)O)c1F | 161 to 163 °C
N#Cc1cc(Cl)ccc1CO | 99 to 101 °C
Sc1nnc(SCc2ccccc2Cl)[nH]1 | 132 to 135 °C
O=C(COc1ccccc1C(=O)O)Nc1cccc(C(F)(F)F)c1 | 243 to 245 °C
Cc1cc(Cl)c(C(=O)O)cc1C | 180 to 182 °C
Cc1noc(N)c1S(N)(=O)=O | 131 to 133 °C
COc1ccc2ccccc2c1-c1cc(CBr)on1 | 85 to 87 °C
O=C1CC2(CCCCC2)CC(=O)N1 | 169 to 171 °C

SMILES | melting point
COc1ccc(C(C)(C)O)c(OCc2ccccc2)c1 | 47 to 49 °C
NNC(=O)c1cc(N)cc([N+](=O)[O-])c1 | 227 to 229 °C
O=S1(=O)CCC(O)c2ccccc21 (stereo not given) | 94 to 96 °C
COc1ccc(NC(=O)c2ccccc2N)cn1 | 129 to 131 °C
Nc1cccc(C(=O)Nc2cnccn2)c1 | 135 to 137 °C
CC(C)CC(NS(C)(=O)=O)C(=O)O (stereo not given) | 67 to 69 °C
COc1ccc(CNc2c([N+](=O)[O-])ncn2C)cc1OC | 196 to 198 °C
Cc1cc(F)c(S(N)(=O)=O)cc1F | 132 to 134 °C
CCc1cc(C(=O)O)sc1C | 108 to 110 °C
OCCNc1ccc(-c2ccccc2)nn1 | 162 to 164 °C
CC(C)C(C)(C#N)NC(=O)CCl (stereo not given) | 71 to 73 °C
CCOC(=O)c1ccc(-n2c(C)cc(C=O)c2C)cc1 | 113 to 115 °C
Cc1ccc([N+](=O)[O-])cc1C(C)Cl (stereo not given) | 44 to 46 °C
O=C(O)C(Oc1ccc(Br)cc1Br)c1ccccc1 (stereo not given) | 129 to 131 °C
Nc1ccnc(Oc2ccccc2Cl)c1 | 121 to 123 °C
COC(=O)COc1ccc(Br)cc1 | 49 to 51 °C
O=C(c1ccccc1)c1ccc(F)cn1 | 42 to 44 °C
Brc1ccc(NCc2cccnc2)cc1 | 88 to 90 °C
C=CCS(N)(=O)=O | 31 to 33 °C
NNC(=O)Cc1ccc(Cl)cc1 | 165 to 167 °C
Nc1ccc(Sc2cccs2)cn1 | 77 to 79 °C
N#CCc1nc2ccc(Br)cc2c(=O)[nH]1 | 279 to 281 °C
Cc1cc([N+](=O)[O-])ccc1OCCO | 93 to 95 °C
Cc1nc(Cl)c(C)c(NN)n1 | 141 to 143 °C
CCSc1ccc(Cl)cc1C(=O)O | 154 to 156 °C
O=C(O)c1ncoc1CCC(F)(F)F | 139 to 141 °C
CC(N)(CO)C1CCCCC1 (stereo not given) | 80 to 82 °C

SMILES | melting point
Cc1ccc(-c2nn(Cc3ccccc3)cc2/C=C/C(=O)O)cc1 | 107 to 109 °C
CC(=O)C(N)=S | 59 to 61 °C
CC(C)(C)C(O)CN (stereo not given) | 64 to 66 °C
Cc1n[nH]c(C)c1S(=O)(=O)N1CCCCC1 | 72 to 73 °C
O=C(Nc1ccc(N2CCOCC2)nc1)OCC(F)(F)F | 204 to 206 °C
CC(c1nc(-c2ccc(Cl)cc2)no1)N1CCNCC1 (stereo not given) | 78 to 80 °C
CC(C)N(C)C(=O)C1CCN(C(=O)CCl)CC1 | 110 to 112 °C
NC(=S)C1CC1 | 112 to 114 °C
O=CC(Br)C=O | 132 to 134 °C
O=C(O)CN1C(=O)c2ccccc2S1(=O)=O | 218 to 220 °C
CCOc1ccc(C(=O)O)cc1OC | 198 to 202 °C
COC(=O)c1cccc(OCC(N)=NO)c1 | 134 to 136 °C
Nc1cc(C(=O)O)nc2ccccc12 | 276 to 278 °C
COc1ccc(-c2nnc(S)o2)cc1 | 202 to 204 °C
O=S1(=O)CCNC2CCCCC21 (stereo not given) | 75 to 77 °C
COc1ccc(C2(C)NC(=O)NC2=O)cc1OC (stereo not given) | 177 to 179 °C
COc1ccc(-c2[nH]c3ccc(F)cc3c2CCC(=O)O)cc1 | 134 to 138 °C
CCC(=O)c1ccc(OC)c(OC)c1 | 61 to 63 °C
O=C(O)c1cc(N2CCCC2=O)ccc1F | 254 to 256 °C
CS(=O)c1ccccc1C(=O)O (stereo not given) | 130 to 135 °C
COC(=O)c1c(-c2cnn(C)c2)csc1N | 128 to 130 °C
CN(C)C(=O)c1cccc(N)c1 | 84 to 86 °C
c1c[nH]c(CN2CCNCC2)n1 | 153 to 155 °C
Nc1nc(CN2CCNCC2)nc2ccccc12 | 213 to 215 °C
